Source: paper PMC10808130, “Mobilization of cholesterol induces the transition from quiescence to growth in Caenorhabditis elegans through steroid hormone and mTOR signaling” (Communications Biology, 2024)

Legend:
SCL-12 [1] = target: T1, SCL-12 (Caenorhabditis elegans, UniProt Q9N5N3); conditions: 20 mM Tris pH 7.5, 30 mM NaCl, 0.05% Triton X-100, room temperature; 0-100 nM ligand; labelled compound
T1 sequence (Q9N5N3 17-208): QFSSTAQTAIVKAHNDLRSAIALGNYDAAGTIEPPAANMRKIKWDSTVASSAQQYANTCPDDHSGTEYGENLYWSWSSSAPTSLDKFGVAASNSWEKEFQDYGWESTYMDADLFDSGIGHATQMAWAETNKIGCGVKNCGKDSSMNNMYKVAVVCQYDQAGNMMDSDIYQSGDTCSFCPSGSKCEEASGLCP

SCL-12 [2] = target: T1, SCL-12; assay: competition with TopFluor cholesterol fluorescence, protein captured on Q-Sepharose beads; assay type: binding; parameters: C-terminal polyhistidine tag; expressed in Sf9 insect cells (baculovirus); conditions: 20 mM Tris pH 7.5, 30 mM NaCl, 0.05% Triton X-100, room temperature; pre-incubated with 50 or 100 nM cholesterol; competitive

| SMILES | direct fluorescence binding, protein captured on Q-Sepharose beads (SCL-12 [1]) | competition with TopFluor cholesterol fluorescence, protein captured on Q-Sephar (SCL-12 [2]) |
| --- | --- | --- |
| CC1=CC(C)=[N+]2C1=C(CC[C@@H](C)[C@H]1CC[C@H]3[C@@H]4CC=C5C[C@@H](O)CC[C@]5(C)[C@H]4CC[C@]13C)c1c(C)cc(C)n1[B-]2(F)F [TopFluor cholesterol] | Binding of TopFluor cholesterol to SCL-12 is concentration-dependent | – |
| CC(C)CCC[C@@H](C)[C@H]1CC[C@H]2[C@@H]3CC=C4C[C@@H](O)CC[C@]4(C)[C@H]3CC[C@]12C [cholesterol] | – | SCL-12 was pre-incubated with unmodified cholesterol, which decreased the binding of TopFluor cholesterol significantly |
